Source: the NIST ThermoML archive (doi:10.1021/je301095j)
± gives the expanded uncertainty stated by the source.

Conditions: 101.33 kPa, Liquid; for viscosity: Capillary tube (Ostwald / Ubbelohde) method; for mass density: Vibrating tube method

SMILES	viscosity (283.15 K) [mPa·s]	mass density (283.15 K) [kg/m3]	viscosity (293.15 K) [mPa·s]	mass density (293.15 K) [kg/m3]	viscosity (298.15 K) [mPa·s]	mass density (298.15 K) [kg/m3]	viscosity (303.15 K) [mPa·s]	mass density (303.15 K) [kg/m3]	viscosity (313.15 K) [mPa·s]	mass density (313.15 K) [kg/m3]
CCCCCCCCO [octan-1-ol]	13.52 ± 0.07	832.11 ± 0.13	9.167 ± 0.05	825.13 ± 0.13	7.618 ± 0.042	821.63 ± 0.14	6.395 ± 0.036	818.14 ± 0.14	4.628 ± 0.028	811.15 ± 0.14
CCO [ethanol]	1.459 ± 0.009	797.97 ± 0.12	1.209 ± 0.007	789.43 ± 0.12	1.098 ± 0.007	785.16 ± 0.12	0.998 ± 0.006	780.88 ± 0.12	0.831 ± 0.005	772.34 ± 0.13
CCCCCO [pentan-1-ol]	5.463 ± 0.04	821.95 ± 0.24	4.037 ± 0.03	814.6 ± 0.24	3.49 ± 0.026	810.93 ± 0.24	3.032 ± 0.023	807.25 ± 0.24	2.319 ± 0.018	799.9 ± 0.24
COCCOC [1,2-dimethoxyethane]	0.493 ± 0.004	877.72 ± 0.12	0.438 ± 0.003	866.71 ± 0.12	0.414 ± 0.003	861.2 ± 0.12	0.392 ± 0.003	855.7 ± 0.13	0.353 ± 0.003	844.69 ± 0.13
